According to ChEMBL document CHEMBL4813922, “Discovery of a novel small-molecule inhibitor of Fam20C that induces apoptosis and inhibits migration in triple negative breast cancer” (Eur J Med Chem, 2021):
Activity calls are given as the source filed them. The rule behind the calls is not given here.

What was measured:
MDA-MB-231 [1] = assay: Antiproliferative activity against human MDA-MB-231 cells measured by MTT assay; type: functional, cell-based
MDA-MB-231 [2] = assay: Antitumour activity against human MDA-MB-231 cells xenografted in Balb/c mouse assessed as upregulation of Bax protein expression in tumor at 25 to 50 mg/kg, ig measured after 14 days by western blot method; type: functional, organism-based; settings: dose 25-50 mg/kg, time 14.0 day
MDA-MB-231 [3] = assay: Induction of apoptosis in human MDA-MB-231 cells assessed as late apoptotic cells at 2.5 uM measured after 24 hrs by Annexin V-FITC/PI staining based flow cytometry (reference value: 3.02%); type: functional
MDA-MB-231 [4] = assay: Induction of apoptosis in human MDA-MB-231 cells assessed as necrotic cells at 2.5 uM measured after 24 hrs by Annexin V-FITC/PI staining based flow cytometrY (reference value: 0.64%); type: functional
MDA-MB-231 [5] = assay: Induction of apoptosis in human MDA-MB-231 cells assessed as downregulation of Bcl-2 protein expression at 2.5 to 5 uM measured after 24 hrs by western blot assay; type: functional, cell-based; settings: dose 2.5-5 µM
MDA-MB-231 [6] = assay: Antitumour activity against human MDA-MB-231 cells xenografted in Balb/c mouse assessed as reduction in tumor volume at 25 to 50 mg/kg, ig for 14 days; type: functional, organism-based; settings: dose 25-50 mg/kg, time 14.0 day
MDA-MB-231 [7] = assay: Inhibition of cell migration in human MDA-MB-231 cells assessed as downregulation of MMP-2 protein expression at 2.5 to 5 uM measured after 24 hrs by western blot assay; type: functional, cell-based; settings: dose 2.5-5 µM
MDA-MB-231 [8] = assay: Induction of apoptosis in human MDA-MB-231 cells assessed as DNA condensation measured after 24 hrs by Hoechst 33258 staining based flourescence microscopic analysis; type: functional, cell-based
MDA-MB-231 [9] = assay: Induction of apoptosis in human MDA-MB-231 cells assessed as upregulation of Bax protein expression at 2.5 to 5 uM measured after 24 hrs by western blot assay; type: functional, cell-based; settings: dose 2.5-5 µM
MDA-MB-231 [10] = assay: Induction of apoptosis in human MDA-MB-231 cells assessed as late apoptotic cells at 5 uM measured after 24 hrs by Annexin V-FITC/PI staining based flow cytometry (reference value: 3.02%); type: functional
MDA-MB-231 [11] = assay: Induction of apoptosis in human MDA-MB-231 cells assessed as upregulation of cleaved caspase 3 level at 2.5 to 5 uM measured after 24 hrs by western blot assay; type: functional, cell-based; settings: dose 2.5-5 µM
MDA-MB-231 [12] = assay: Induction of apoptosis in human MDA-MB-231 cells assessed as necrotic cells at 5 uM measured after 24 hrs by Annexin V-FITC/PI staining based flow cytometry (reference value: 0.64%); type: functional
MDA-MB-231 [13] = assay: Induction of apoptosis in human MDA-MB-231 cells assessed as early apoptotic cells at 2.5 uM measured after 24 hrs by Annexin V-FITC/PI staining based flow cytometry (reference value: 2%); type: functional
MCF-10A = assay: Cytotoxicity against human MCF-10A cells assessed as inhibition of cell proliferation at 0.625 to 40 uM measured by MTT assay; type: cell-based; settings: dose 0.625-40 µM
MDA-MB-231 [14] = assay: Antitumour activity against human MDA-MB-231 cells xenografted in Balb/c mouse assessed as reduction in tumor weight at 25 to 50 mg/kg, ig for 14 days; type: functional, organism-based; settings: dose 25-50 mg/kg, time 14.0 day
MDA-MB-231 [15] = assay: Inhibition of colony formation in human MDA-MB-231 cells at 5 uM measured after 2 weeks by crystal violet staining based analysis; type: functional, cell-based
MDA-MB-231 [16] = assay: Inhibition of cell migration in human MDA-MB-231 cells assessed as decrease in wound closure at 2.5 uM measured after 24 hrs by scratch assay; type: functional, cell-based
MDA-MB-231 [17] = assay: Induction of apoptosis in human MDA-MB-231 cells assessed as viable cells at 2.5 uM measured after 24 hrs by Annexin V-FITC/PI staining based flow cytometry (reference value: 94.3%); type: functional; settings: read-out: Activity
MCF7 = assay: Antiproliferative activity against human MCF7 cells measured by MTT assay; type: functional, cell-based
MDA-MB-231 [18] = assay: Inhibition of cell migration in human MDA-MB-231 cells assessed as downregulation of MMP-2 protein expression at 2.5 uM measured after 24 hrs by immunofluorescence assay; type: functional, cell-based
MDA-MB-231 [19] = assay: Inhibition of cell migration in human MDA-MB-231 cells assessed as upregulation of E-cadherin protein expression at 2.5 to 5 uM measured after 24 hrs by western blot assay; type: functional, cell-based; settings: dose 2.5-5 µM
[20] = target: T1, Extracellular serine/threonine protein kinase FAM20C (Homo sapiens) (UniProt Q8IXL6); assay: Inhibition of Fam20C (unknown origin) assessed as reduction in inorganic phosphate release in presence of ATP at 10 uM measured by Malachite green phosphate staining based micro plate reader assay relative to control
T1 sequence (whole entry): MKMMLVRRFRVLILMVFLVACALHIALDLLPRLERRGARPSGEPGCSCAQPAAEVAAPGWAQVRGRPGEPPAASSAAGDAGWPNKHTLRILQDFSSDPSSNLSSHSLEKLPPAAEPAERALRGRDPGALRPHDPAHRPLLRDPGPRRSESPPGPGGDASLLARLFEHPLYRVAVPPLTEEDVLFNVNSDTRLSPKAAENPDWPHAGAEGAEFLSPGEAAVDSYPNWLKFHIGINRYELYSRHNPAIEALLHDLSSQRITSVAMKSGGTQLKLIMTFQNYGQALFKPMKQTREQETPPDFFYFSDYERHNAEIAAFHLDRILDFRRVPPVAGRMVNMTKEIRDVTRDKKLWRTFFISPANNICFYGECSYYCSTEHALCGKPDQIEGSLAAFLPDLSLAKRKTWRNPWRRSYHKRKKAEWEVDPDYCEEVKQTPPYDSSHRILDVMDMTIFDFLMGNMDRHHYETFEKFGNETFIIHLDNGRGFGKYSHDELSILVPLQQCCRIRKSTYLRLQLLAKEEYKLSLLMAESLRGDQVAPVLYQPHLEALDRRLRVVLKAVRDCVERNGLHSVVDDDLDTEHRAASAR

[21] = Toxicity in Balb/c mouse xenografted with human MDA-MB-231 cells assessed as changes in body weight at 50 mg/kg, ig measured after 14 days; type: organism-based; settings: in vivo, po, 336 h, time 14 day
MDA-MB-231 [22] = assay: Induction of apoptosis in human MDA-MB-231 cells assessed as early apoptotic cells at 5 uM measured after 24 hrs by Annexin V-FITC/PI staining based flow cytometry (reference value: 2%); type: functional
MDA-MB-468 = assay: Antiproliferative activity against human MDA-MB-468 cells measured by MTT assay; type: functional, cell-based
MDA-MB-231 [23] = assay: Inhibition of cell migration in human MDA-MB-231 cells assessed as upregulation of E-cadherin protein expression at 2.5 uM measured after 24 hrs by immunofluorescence assay; type: functional, cell-based
MDA-MB-231 [24] = assay: Antitumour activity against human MDA-MB-231 cells xenografted in Balb/c mouse assessed as increase in cleaved caspase 3 level in tumor at 25 to 50 mg/kg, ig measured after 14 days by western blot method; type: functional, organism-based; settings: dose 25-50 mg/kg, time 14.0 day
MDA-MB-231 [25] = assay: Inhibition of cell migration in human MDA-MB-231 cells at 2.5 uM measured after 12 hrs by Transwell assay; type: functional, cell-based
[26] = target: T2, Extracellular serine/threonine protein kinase FAM20C (Homo sapiens, UniProt Q8IXL6); assay: Inhibition of Fam20C (unknown origin) assessed as reduction in inorganic phosphate release in presence of ATP measured by Malachite green phosphate staining based micro plate reader assay
T2 sequence (Q8IXL6 whole entry): T1 sequence (whole entry)

MDA-MB-231 [27] = assay: Antitumour activity against human MDA-MB-231 cells xenografted in Balb/c mouse assessed as downregulation of Bcl-2 protein expression in tumor at 25 to 50 mg/kg, ig measured after 14 days by western blot method; type: functional, organism-based; settings: dose 25-50 mg/kg, time 14.0 day
MDA-MB-231 [28] = assay: Induction of apoptosis in human MDA-MB-231 cells assessed as viable cells at 5 uM measured after 24 hrs by Annexin V-FITC/PI staining based flow cytometry (reference value: 94.3%); type: functional; settings: read-out: Activity
MDA-MB-231 [29] = assay: Antitumour activity against human MDA-MB-231 cells xenografted in Balb/c mouse assessed as decrease in Ki-67 expression in tumor at 50 mg/kg, ig measured after 14 days by immunohistochemistry method; type: functional, organism-based; settings: time 14.0 day
[30] = Toxicity in Balb/c mouse xenografted with human MDA-MB-231 cells assessed as changes in body weight at 25 mg/kg, ig measured after 14 days; type: organism-based; settings: in vivo, po, 336 h, time 14 day

SMILES: COc1ccc(S(=O)(=O)Nc2ccc(Nc3nccc(Nc4cc(OC)c(OC)c(OC)c4)n3)cc2)cc1
- IC50 (MDA-MB-231 [1]): 5.99 µM
- Activity (MDA-MB-231 [2]): Active
- Activity (MDA-MB-231 [3]): 15.3%
- Activity (MDA-MB-231 [4]): 3.23%
- Activity (MDA-MB-231 [5]): Active
- Activity (MDA-MB-231 [6]): Active
- inhibition (MDA-MB-231 [7]): Active
- Activity (MDA-MB-231 [8]): Active
- Activity (MDA-MB-231 [9]): Active
- Activity (MDA-MB-231 [10]): 33.2%
- Activity (MDA-MB-231 [11]): Active
- Activity (MDA-MB-231 [12]): 8.89%
- Activity (MDA-MB-231 [13]): 10.7%
- Activity (MCF-10A): Non-Toxic
- Activity (MDA-MB-231 [14]): Active
- inhibition (MDA-MB-231 [15]): Active
- inhibition (MDA-MB-231 [16]): Active
- viability at 2.5 µM (MDA-MB-231 [17]): 70.8%
- IC50 (MCF7): 9.7 µM
- inhibition (MDA-MB-231 [18]): Active
- inhibition (MDA-MB-231 [19]): Active
- inhibition [20]: 68%
- Activity [21]: Non-Toxic
- Activity (MDA-MB-231 [22]): 15.9%
- IC50 (MDA-MB-468): 10.3 µM
- inhibition (MDA-MB-231 [23]): Active
- Activity (MDA-MB-231 [24]): Active
- inhibition (MDA-MB-231 [25]): Active
- IC50 [26]: 6.24 µM
- Activity (MDA-MB-231 [27]): Active
- viability at 5 µM (MDA-MB-231 [28]): 42%
- Activity (MDA-MB-231 [29]): Active
- Activity [30]: Non-Toxic
